Data set [1] deals with T1, dopamine beta-hydroxylase (DBH), non-immobilized (Bos taurus, UniProt P15101).
T1 construct: purchased
T1 sequence (P15101 1-610): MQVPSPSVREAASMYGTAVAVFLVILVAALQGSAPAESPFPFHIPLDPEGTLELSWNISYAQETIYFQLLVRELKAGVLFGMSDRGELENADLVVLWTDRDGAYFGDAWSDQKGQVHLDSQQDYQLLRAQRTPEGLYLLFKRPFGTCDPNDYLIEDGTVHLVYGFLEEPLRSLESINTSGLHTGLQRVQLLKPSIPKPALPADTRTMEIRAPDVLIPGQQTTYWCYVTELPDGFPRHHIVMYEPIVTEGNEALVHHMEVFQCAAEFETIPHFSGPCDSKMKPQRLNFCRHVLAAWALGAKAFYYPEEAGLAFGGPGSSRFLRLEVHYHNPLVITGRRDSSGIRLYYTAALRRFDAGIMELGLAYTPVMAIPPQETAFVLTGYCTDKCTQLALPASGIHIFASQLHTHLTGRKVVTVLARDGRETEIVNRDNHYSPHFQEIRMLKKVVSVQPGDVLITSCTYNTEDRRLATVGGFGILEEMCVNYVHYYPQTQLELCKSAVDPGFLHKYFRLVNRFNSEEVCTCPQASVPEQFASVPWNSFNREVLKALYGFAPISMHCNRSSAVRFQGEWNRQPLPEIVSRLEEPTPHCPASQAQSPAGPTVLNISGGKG
The experiment in a line: Non-immobilized DBH activity assay, batch incubation with HPLC-fluorescence analysis. The data set is classed as biochemical, bovine. On the procedure:
The solutes were quantitated using fluorescence detection with excitation at λ=265 nm and no cut-off filter for emission. A flow rate of 1 ml/min and ambient temperature were used throughout the study.
Enzymatic conversions utilizing DBH require cupric sulphate, catalase, ascorbic acid and sodium fumarate. An off-line extraction method utilizing solid phase extraction cartridges containing a phenylboronic acid stationary phase was developed. The procedure consisted of the following: 1-ml cartridges were conditioned with 2 ml of methanol followed by 2 ml of sodium phosphate buffer (0.1M, pH 8.4). One ml of reaction mixture was added, the cartridge was then washed with 1 ml sodium phosphate buffer (0.1M, pH 8.4) and the substrate and product were eluted using 1 ml of 0.1N HCl. The eluate was directly injected onto the HPLC system.
(§1) The enzyme was assayed as follows: four different solutions were prepared A, B, C and D (final concentration). (A) 500 μL of enzyme solution (10 μg/ml); B: 275 μL sodium acetate buffer (10 mM, pH 5.5), 50 μL cupric sulphate (5 μM); C: 25 μL catalase (5 μg/ml), 50 μL ascorbic acid (10 mM), 50 μl sodium fumarate (10 mM); D: 50 μl substrate (5 mM). Solution B was added to solution A, the resulting solution was mixed for 1 min. Solution C was added and the resulting solution was mixed for an additional minute. The reaction was started with the addition of the substrate (D), after which the reaction solution was incubated for 5 min at 37° C. in a shaking bath. The reaction was stopped by the addition of 100 μl of cold hexane, the resulting mixture was centrifuged at 3000×g for 10 min and the supernatant transferred to the pre-conditioned phenylboronic acid cartridges in order to extract the product formed and the remaining substrate. Extracted samples were directly injected onto the HPLC under either chiral or achiral conditions.

Data set [2] addresses T2, dopamine beta-hydroxylase immobilized onto IAM (DBH-IAM) (Bos taurus, UniProt P15101).
T2 construct: purchased
T2 sequence (P15101 1-610): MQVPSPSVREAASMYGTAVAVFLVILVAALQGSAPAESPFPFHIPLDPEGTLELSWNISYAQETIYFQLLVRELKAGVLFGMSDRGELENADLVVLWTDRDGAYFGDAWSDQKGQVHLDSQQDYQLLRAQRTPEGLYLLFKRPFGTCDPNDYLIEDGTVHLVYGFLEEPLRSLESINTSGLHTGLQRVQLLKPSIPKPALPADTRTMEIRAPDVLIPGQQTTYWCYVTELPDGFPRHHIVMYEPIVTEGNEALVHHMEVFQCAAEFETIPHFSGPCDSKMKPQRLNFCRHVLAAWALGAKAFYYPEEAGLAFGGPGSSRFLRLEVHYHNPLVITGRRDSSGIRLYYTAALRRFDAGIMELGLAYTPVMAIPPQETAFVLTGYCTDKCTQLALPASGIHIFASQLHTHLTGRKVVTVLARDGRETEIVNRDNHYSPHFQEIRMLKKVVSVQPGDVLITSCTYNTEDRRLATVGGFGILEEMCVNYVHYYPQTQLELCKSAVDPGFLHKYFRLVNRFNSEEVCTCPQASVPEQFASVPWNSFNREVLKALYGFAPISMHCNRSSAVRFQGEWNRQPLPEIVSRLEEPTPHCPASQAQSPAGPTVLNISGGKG
Put plainly: DBH immobilized onto IAM stationary phase (DBH-IAM), batch assay. It is filed as biochemical, bovine. On the procedure: as §1
The packing material was washed three times with sodium acetate buffer (0.1M, pH 5.5). The washing was carried out by adding 1 ml of buffer to the packing material, the suspension was vortexed for 1 min, centrifuged at 3000×g for 10 min and the supernatant decanted. The enzyme solution (8-10 μg in 1 ml sodium acetate buffer) was added to the packing material, the mixture was vortexed for 15 min and then placed in a shaking bath for 2 h at ambient temperature. At the end of 2 h, the suspension was centrifuged, the supernatant decanted and the packing material washed three additional times with buffer. The amount of enzyme immobilized on the packing material was determined by measuring the amount of residual enzyme in the supernatant using the BioRad Protein Assay. The difference in the absorbance reading before immobilization and the total of absorbances after immobilization determined the amount of enzyme bound on the packing material.

Data set [3] addresses T3, DBH-Glut-P IMER (immobilized dopamine beta-hydroxylase) (Bos taurus, UniProt P15101).
T3 construct: purchased
T3 sequence (P15101 1-610): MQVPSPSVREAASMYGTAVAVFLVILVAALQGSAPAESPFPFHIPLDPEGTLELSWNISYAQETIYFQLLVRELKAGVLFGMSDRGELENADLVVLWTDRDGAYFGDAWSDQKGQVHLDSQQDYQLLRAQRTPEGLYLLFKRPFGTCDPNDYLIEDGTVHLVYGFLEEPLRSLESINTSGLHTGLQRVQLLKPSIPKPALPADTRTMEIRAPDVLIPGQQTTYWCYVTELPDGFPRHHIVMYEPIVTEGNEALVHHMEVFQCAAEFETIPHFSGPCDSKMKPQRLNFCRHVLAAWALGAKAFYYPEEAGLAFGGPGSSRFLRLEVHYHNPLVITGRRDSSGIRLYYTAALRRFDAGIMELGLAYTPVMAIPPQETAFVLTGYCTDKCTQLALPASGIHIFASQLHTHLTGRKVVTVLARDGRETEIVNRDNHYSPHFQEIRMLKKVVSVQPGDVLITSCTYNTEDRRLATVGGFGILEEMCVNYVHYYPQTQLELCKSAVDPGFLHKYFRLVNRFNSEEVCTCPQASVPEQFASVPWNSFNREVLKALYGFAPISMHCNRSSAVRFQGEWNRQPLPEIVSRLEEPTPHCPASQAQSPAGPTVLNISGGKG
Put plainly: On-line DBH-Glut-P immobilized enzyme reactor (DBH-Glut-P IMER) HPLC system. It is filed as biochemical, bovine. An excerpt:
DBH immobilized on the IAM or Glut-P stationary phase was packed into a 1 cm×10 mm guard (Regis Technologies). The guard was placed in a holder and the resulting column connected to a chromatographic system. THE DBH-IAM-IMER and the DBH-Glut-P-IMER was washed with sodium acetate buffer [0.1M, pH 5.5] and sodium acetate buffer [0.1M, pH 6.0], respectively. The eluent from both IMERs was collected in order to determine if any of the DBH was being washed off the columns. The Biorad assay was utilized to measure the amount of non-immobilized enzyme. When the columns were not in use they were washed with sodium acetate buffer at the respective pHs and stored at 4° C.
Pumps 2 and 3 on system 2 and 3 were stopped. 100 μl of a substrate/cofactor mixture is loaded into the injector (i) and the valve is switched to the inject position at the same time the witching valve (SV) is switched such that substrate/product are eluted from the DBH-IMERs and concentrated onto the PBA column of system 2.The second pump was started and mobile phase A was pumped through the PBA column at a flow rate of 0.1 ml/min for 30 sec in order to elute, ascorbic acid and any other by-products produced from the reaction. The pump was then switched to mobile phase B with a flow rate of 0.1 ml/min for 2 min and simultaneously SV1 was switched such that unreacted substrate and product formed were concentrated on the analytical columns of System 3. When the specific contact time elapses the SV2 is switched back to the original position and the pump 3 is started.
The enzymatic activity on the DBH-Glut-P was determined by quantification of the amount of product formed with a given substrate. The temperature of the IMER unless otherwise stated was kept at 37° C. with a column heater. Stock solutions of tyramine were prepared in water. […] The kinetic parameters were determined using standard Michaelis-Menten approach. […] The rates of reaction (Vmax) were calculated using […]mol/mg/min. Results are expressed as mean±standard error of the mean (SEM). […]

Substrate in data set [4]: NCCc1ccc(O)c(O)c1
The experiment in a line: purified protein, by the assay type. The note with it: other: DBH-IAM; pH 5.5; 37.0 °C.

Substrate in data set [5]: NCCc1ccc(O)cc1
Put plainly: DBH immobilized onto IAM stationary phase (DBH-IAM), batch assay. It is filed as biochemical, bovine. As to conditions: other: DBH-IAM; pH 5.5; 37.0 °C.

Setting [6] is: read-out: % Control Activity DBH.
[7] abbreviates: read-out: % Control Activity DBH-IAM.

In data set [1], `CCCCc1ccc(C(=O)O)nc1` [Fusaric acid, fusaric acid] showed an IC50 of 7.5 nM. In data set [1] (non-immobilized enzyme, concentrations as low as 10^−6M), the “inhibition of DBH mediated formation of norepinephrine from dopamine” value was “approximately 50%”. Also, in data set [1] (setting [6]), the remaining activity at 0.0016 µM turned out to be 99%, the remaining activity at 0.0032 µM was found to be 84%, the remaining activity at 0.0063 µM worked out at 40% and the remaining activity at 0.0125 µM turned out to be 21%. Further, in data set [1] (setting [6]), the remaining activity at 0.025 µM came out at 19%, the remaining activity at 0.05 µM came out at 17%, the remaining activity at 0.1 µM is 0% and the remaining activity at 0.2 µM amounted to 0%. Also, in data set [2] (immobilized enzyme (DBH-IAM), concentrations as low as 10^−6M), the “inhibition of DBH mediated formation of norepinephrine from dopamine” value is listed as “approximately 50%”. Besides, in data set [2] (setting [7]), the remaining activity at 0.0016 µM was determined as 91%, the remaining activity at 0.0032 µM was found to be 73%, the remaining activity at 0.0063 µM worked out at 56% and the remaining activity at 0.0125 µM was found to be 51%. Besides, in data set [2] (setting [7]), the remaining activity at 0.025 µM worked out at 46%, the remaining activity at 0.05 µM amounted to 20%, the remaining activity at 0.1 µM turned out to be 0% and the remaining activity at 0.2 µM is 0%. Moreover, the IC50 in data set [3] came to 5.6 nM.

B1: dopamine beta-hydroxylase immobilized onto IAM (DBH-IAM) (Bos taurus) (protein)
chain: MQVPSPSVREAASMYGTAVAVFLVILVAALQGSAPAESPFPFHIPLDPEGTLELSWNISYAQETIYFQLLVRELKAGVLFGMSDRGELENADLVVLWTDRDGAYFGDAWSDQKGQVHLDSQQDYQLLRAQRTPEGLYLLFKRPFGTCDPNDYLIEDGTVHLVYGFLEEPLRSLESINTSGLHTGLQRVQLLKPSIPKPALPADTRTMEIRAPDVLIPGQQTTYWCYVTELPDGFPRHHIVMYEPIVTEGNEALVHHMEVFQCAAEFETIPHFSGPCDSKMKPQRLNFCRHVLAAWALGAKAFYYPEEAGLAFGGPGSSRFLRLEVHYHNPLVITGRRDSSGIRLYYTAALRRFDAGIMELGLAYTPVMAIPPQETAFVLTGYCTDKCTQLALPASGIHIFASQLHTHLTGRKVVTVLARDGRETEIVNRDNHYSPHFQEIRMLKKVVSVQPGDVLITSCTYNTEDRRLATVGGFGILEEMCVNYVHYYPQTQLELCKSAVDPGFLHKYFRLVNRFNSEEVCTCPQASVPEQFASVPWNSFNREVLKALYGFAPISMHCNRSSAVRFQGEWNRQPLPEIVSRLEEPTPHCPASQAQSPAGPTVLNISGGKG
notes: purchased
In the case of B1, in data set [4], the Km was 2530 µM and the Vmax was 0.160 µmol/mg/min. In data set [5], the Km amounted to 1640 µM and the Vmax worked out at 0.101 µmol/mg/min.

The record behind these values is patent US20040053355A1, “Modular approach to on-line synthesis, drug discovery and biochemical transformations using immobilized enzyme reactors” (priority 2000, published 2004).
